The target of series [1] is T1, hCB1 (Homo sapiens, UniProt P21554). As to the kind of experiment: radioligand displacement binding at CB1 (membranes of CHO-K1 cells over-expressing receptor). On the technique in general: Displacement assays read how much labelled ligand stays bound in the presence of the test substance.
Experimental: (§1) All compounds were characterized by H^1 NMR and evaluated using a calcium mobilization assay. […] Further characterization of select compounds was performed using radioligand displacement of [3H]1 and equilibrium dissociation constant (Ki) values were determined.
A further series has as its system MDCK. As to the kind of experiment: MDCK BBB Assay. The note with it: MDCK BBB assay. Format: in vitro ADME.
Another series addresses hCB2 (Homo sapiens, UniProt P34972). Nature of the series: radioligand displacement binding at CB2 ([3H]CP55940, membranes of CHO-K1 cells over-expressing receptor).
Series [2] has as its target T1, hCB1. Nature of the series: functional fluorescent CB1 activated Gαq16-coupled intracellular calcium mobilization assay in CHO-K1 cells. Type of series: cell-based. To be noted: average of 3-6 measurements, read-out: Apparent antagonist dissociation constant (Ke) at hCB1. Details: expressed in transfected cells; host or cells: CHO-K1 (membranes).
The mark [3] stands for this setting: read-out: Binding affinity (Ki) at hCB1, radioligand displacement, CHO-K1 membranes, average of 3-6 measurements.
The mark [4] stands for this setting: read-out: Binding affinity (Ki) at hCB2, displacement of [3H]CP55940, CHO-K1 membranes, average of 3-6 measurements.

Like-named read-outs stand apart in the source and are kept apart here.

These results are taken from patent US10696677B2 (Research Triangle Institute, priority 2016, dated 2020).

T1 sequence (P21554 whole entry): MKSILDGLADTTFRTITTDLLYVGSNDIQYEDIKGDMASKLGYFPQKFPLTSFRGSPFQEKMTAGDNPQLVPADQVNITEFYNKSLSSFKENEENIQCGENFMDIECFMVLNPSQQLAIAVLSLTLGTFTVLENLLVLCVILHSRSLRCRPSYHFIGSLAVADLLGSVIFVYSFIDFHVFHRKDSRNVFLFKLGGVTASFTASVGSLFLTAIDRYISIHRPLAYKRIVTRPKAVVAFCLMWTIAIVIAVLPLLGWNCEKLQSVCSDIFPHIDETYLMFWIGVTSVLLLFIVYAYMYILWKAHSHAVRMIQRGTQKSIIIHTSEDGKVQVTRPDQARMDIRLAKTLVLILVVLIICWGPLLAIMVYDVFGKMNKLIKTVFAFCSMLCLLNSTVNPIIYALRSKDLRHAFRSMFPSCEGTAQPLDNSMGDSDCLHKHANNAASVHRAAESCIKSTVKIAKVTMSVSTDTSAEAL
Sequence of hCB2 (P34972 whole entry): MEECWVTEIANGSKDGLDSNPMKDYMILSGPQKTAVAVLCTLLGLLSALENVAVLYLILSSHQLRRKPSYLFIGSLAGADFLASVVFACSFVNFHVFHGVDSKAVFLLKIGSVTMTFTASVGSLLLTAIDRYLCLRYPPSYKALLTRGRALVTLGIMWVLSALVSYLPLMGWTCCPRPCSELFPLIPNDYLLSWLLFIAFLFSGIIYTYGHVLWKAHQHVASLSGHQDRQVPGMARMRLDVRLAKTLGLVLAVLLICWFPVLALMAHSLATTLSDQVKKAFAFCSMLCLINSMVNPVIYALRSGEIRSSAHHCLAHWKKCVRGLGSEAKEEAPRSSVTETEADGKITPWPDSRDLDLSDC
Experimental for hCB2: as §1

By Ki is commonly meant a measure of affinity in units of concentration, obtained from inhibition or displacement. For `CCCS(=O)(=O)N1CCN(c2ncnc3c2nc(-c2ccccc2Cl)n3-c2ccc(Cl)cc2)CC1` [Compound 79, 8-(2-Chlorophenyl)-9-(4-chlorophenyl)-6-[4-(propylsulfonyl)piperazin-1-yl]-9H-purine], the Ki was determined as 1.2 nM on hCB1 [1] (setting [3]) and 848 nM on hCB2 (setting [4]). Besides, the “% Permeable” value with MDCK is on record as 6%.

As a reminder, the melting point is the temperature, or range, at which the solid turns liquid. Turning to `O=C(NCC1CCCCC1)N1CCN(c2ncnc3c2nc(-c2ccccc2Cl)n3-c2ccc(Cl)cc2)CC1` [Compound 120, 4-[8-(2-chlorophenyl)-9-(4-chlorophenyl)-9H-purin-6-yl]-N-(cyclohexylmethyl)piperazine-1-carboxamide], the melting point lay in the range of 105 to 107 °C. At hCB1 [1] (setting [3]), the Ki was determined as 43 nM. The Ki at hCB2 (setting [4]) came to 740 nM.

`O=C(Nc1ccc(F)cc1F)N1CCN(c2ncnc3c2nc(-c2ccccc2Cl)n3-c2ccc(Cl)cc2)CC1` [Compound 57, 4-[8-(2-Chlorophenyl)-9-(4-chlorophenyl)-9H-purin-6-yl]-N-(2,4-difluorophenyl)piperazine-1-carboxamide] returned a melting point of 220 to 221 °C. At hCB1 [1], this compound yielded an inhibition constant (Ki) of 9 nM. Besides, the Ki on hCB2 (setting [4]) is 3200 nM.

Consider `N=C(Nc1ccc(F)cc1)NC1CCN(c2ncnc3c2nc(-c2ccccc2Cl)n3-c2ccc(Cl)cc2)CC1` [Compound 27, 1-{1-[8-(2-chlorophenyl)-9-(4-chlorophenyl)-9H-purin-6-yl]piperidin-4-yl}-3-(4-fluorophenyl)guanidine], for which the Kb at hCB1 [2] amounted to 600 nM.

For `Clc1ccc(-n2c(-c3ccccc3Cl)nc3c(N4CCC(NCc5ccncc5)CC4)ncnc32)cc1` [Compound 38, 1-[8-(2-chlorophenyl)-9-(4-chlorophenyl)-9H-purin-6-yl]-N-(pyridin-4-ylmethyl)piperidin-4-amine], on hCB1 [2], the Kb stood at 360 nM.

Compound `O=C(Nc1ccc(F)cc1)N1CCN(c2ncnc3c2nc(-c2ccccc2Cl)n3-c2ccc(Cl)cc2)CC1` [Compound 43, 4-[8-(2-Chlorophenyl)-9-(4-chlorophenyl)-9H-purin-6-yl]-N-(4-fluorophenyl)piperazine-1-carboxamide] showed a melting point of 234 to 235 °C. In addition, on hCB1 [1] (setting [3]), the inhibition constant (Ki) came out at 19 nM. Further, the inhibitory constant (Ki) on hCB2 (setting [4]) came out at 2000 nM.

In the case of `O=C(C1COc2ccccc2O1)N1CCN(c2ncnc3c2nc(-c2ccccc2Cl)n3-c2ccc(Cl)cc2)CC1` (stereo not drawn) [Compound 61, 8-(2-Chlorophenyl)-9-(4-chlorophenyl)-6-[4-(2,3-dihydro-1,4-benzodioxin-2-ylcarbonyl)piperazin-1-yl]-9H-purine], the Ki on hCB1 [1] stood at 5.3 nM; on hCB2 (setting [4]) it was 606 nM. In addition, the “% Permeable” value with MDCK was 0%.

Take `CS(=O)(=O)N1CCN(c2ncnc3c2nc(-c2ccccc2Cl)n3-c2ccc(Cl)cc2)CC1` [Compound 86, 8-(2-Chlorophenyl)-9-(4-chlorophenyl)-6-[4-(methylsulfonyl)piperazin-1-yl]-9H-purine]: the Ki on hCB1 [1] amounted to 24.4 nM; at hCB2 it was 1650 nM. The “% Permeable” value in the series with MDCK came out at 14%.

With `O=C(N1CCN(c2ncnc3c2nc(-c2ccccc2Cl)n3-c2ccc(Cl)cc2)CC1)C(F)(F)F` [Compound 87, 8-(2-Chlorophenyl)-9-(4-chlorophenyl)-6-[4-(trifluoroacetyl)piperazin-1-yl]-9H-purine], the inhibition constant (Ki) is 1 nM on hCB1 [1] (setting [3]) and 134 nM on hCB2. In addition, the “% Permeable” value in the series on MDCK was approximately 100%.

For the compound `Clc1ccc(-n2c(-c3ccccc3Cl)nc3c(N4CCC(Nc5ccncc5)CC4)ncnc32)cc1` [Compound 36, N-{1-[8-(2-chlorophenyl)-9-(4-chlorophenyl)-9H-purin-6-yl]piperidin-4-yl}pyridin-4-amine], the Kb at hCB1 [2] is 100 nM.

As for `Clc1ccc(-n2c(-c3ccccc3Cl)nc3c(N4CCN(c5nc6ccccc6[nH]5)CC4)ncnc32)cc1` [Compound 123, 6-[4-(1H-benzimidazol-2-yl)piperazin-1-yl]-8-(2-chlorophenyl)-9-(4-chlorophenyl)-9H-purine], on hCB1 [2], the Kb was determined as 53 nM.

In the case of `Cc1noc(C)c1-c1nc2c(N3CCN(Cc4ccccc4Cl)CC3)ncnc2n1-c1ccc(Cl)cc1` [Compound 53, 6-[4-(2-chlorobenzyl)piperazin-1-yl]-9-(4-chlorophenyl)-8-(3,5-dimethylisoxazol-4-yl)-9H-purine], the Kb on hCB1 [2] stood at 110 nM.

On to `Clc1ccc(-n2c(-c3sccc3Cl)nc3c(N4CCN(Cc5ccccc5Cl)CC4)ncnc32)cc1` [Compound 52, 6-[4-(2-chlorobenzyl)piperazin-1-yl]-9-(4-chlorophenyl)-8-(3-chlorothiophen-2-yl)-9H-purine], for which the Kb on hCB1 [2] came to 220 nM.

`O=C(Nc1ccccn1)N1CCN(c2ncnc3c2nc(-c2ccccc2Cl)n3-c2ccc(Cl)cc2)CC1` [Compound 122, 4-[8-(2-Chlorophenyl)-9-(4-chlorophenyl)-9H-purin-6-yl]-N-(pyridin-2-yl)piperazine-1-carboxamide] gave a melting point of 120 to 122 °C. In addition, the Ki on hCB1 [1] (setting [3]) was found to be 6 nM. Further, the “% Permeable” value with MDCK is reported as 1%. Besides, on hCB2 (setting [4]), the inhibitory constant (Ki) was 7100 nM.

Take `O=C(NC1(C(F)(F)F)CCCC1)N1CCN(c2ncnc3c2nc(-c2ccccc2Cl)n3-c2ccc(Cl)cc2)CC1` [Compound 118, 4-[8-(2-Chlorophenyl)-9-(4-chlorophenyl)-9H-purin-6-yl]-N-[1-(trifluoromethyl)cyclopentyl]piperazine-1-carboxamide]: the melting point was 202 to 204 °C. On hCB1 [1] (setting [3]), the Ki stood at 24 nM. For the same compound, on hCB2 (setting [4]), the inhibitory constant (Ki) was 1300 nM.

`O=C(Nc1ccc(F)c(F)c1)N1CCN(c2ncnc3c2nc(-c2ccccc2Cl)n3-c2ccc(Cl)cc2)CC1` [Compound 42, 4-[8-(2-Chlorophenyl)-9-(4-chlorophenyl)-9H-purin-6-yl]-N-(3,4-difluorophenyl)piperazine-1-carboxamide]: the melting point is 205 to 207 °C. Moreover, the “% Permeable” value in the series on MDCK came out at 0%. Moreover, on hCB2 (setting [4]), the Ki was determined as 4200 nM.

Take `CCCCC(=O)N1CCN(c2ncnc3c2nc(-c2ccccc2Cl)n3-c2ccc(Cl)cc2)CC1` [Compound 103, 8-(2-Chlorophenyl)-9-(4-chlorophenyl)-6-(4-pentanoylpiperazin-1-yl)-9H-purine]: the Ki on hCB1 [1] was found to be 5.5 nM; on hCB2 (setting [4]), 403 nM. Also, in the series with MDCK, the “% Permeable” value stood at 0%.

For the compound `CN(Cc1ccc(F)cc1)C1CCN(c2ncnc3c2nc(-c2ccccc2Cl)n3-c2ccc(Cl)cc2)CC1` [Compound 41, 1-[8-(2-chlorophenyl)-9-(4-chlorophenyl)-9H-purin-6-yl]-N-(4-fluorobenzyl)-N-methylpiperidin-4-amine], the Kb at hCB1 [2] is 185 nM.

As to `CCS(=O)(=O)N1CCN(c2ncnc3c2nc(-c2ccccc2Cl)n3-c2ccc(Cl)cc2)CC1` [Compound 78, 8-(2-Chlorophenyl)-9-(4-chlorophenyl)-6-[4-(ethylsulfonyl)piperazin-1-yl]-9H-purine], the Ki on hCB1 [1] was 2.7 nM; at hCB2 (setting [4]), 980 nM. For the same compound, the “% Permeable” value in the series on MDCK came out at 18%.

Consider `Clc1ccc(-n2c(-c3ccccc3Cl)nc3c(N4CCC(NCc5ccccc5)CC4)ncnc32)cc1` [Compound 37, N-benzyl-1-[8-(2-chlorophenyl)-9-(4-chlorophenyl)-9H-purin-6-yl]piperidin-4-amine], for which the Kb on hCB1 [2] is 59 nM.

Take `O=C(Nc1ccccc1)N1CCN(c2ncnc3c2nc(-c2ccccc2Cl)n3-c2ccc(Cl)cc2)CC1` [Compound 121, 4-[8-(2-chlorophenyl)-9-(4-chlorophenyl)-9H-purin-6-yl]-N-phenylpiperazine-1-carboxamide]: the melting point was 121 to 123 °C. On hCB1 [1] (setting [3]), the Ki was 6 nM. Further, the Ki at hCB2 (setting [4]) amounted to 2400 nM.

On to `O=C(NC1CCCCC1)N1CCN(c2ncnc3c2nc(-c2ccccc2Cl)n3-c2ccc(Cl)cc2)CC1` [Compound 119, 4-[8-(2-chlorophenyl)-9-(4-chlorophenyl)-9H-purin-6-yl]-N-cyclohexylpiperazine-1-carboxamide], for which the melting point was 228 to 229 °C. Further, on hCB1 [1] (setting [3]), the inhibition constant (Ki) is 1.4 nM. In addition, the Ki on hCB2 (setting [4]) amounted to 620 nM.

Compound `O=C(NC1CCCC1)N1CCN(c2ncnc3c2nc(-c2ccccc2Cl)n3-c2ccc(Cl)cc2)CC1` [Compound 117, 4-[8-(2-Chlorophenyl)-9-(4-chlorophenyl)-9H-purin-6-yl]-N-cyclopentylpiperazine-1-carboxamide] came in with a melting point of 248 to 250 °C. The Ki at hCB1 [1] (setting [3]) worked out at 5 nM. In addition, the “% Permeable” value in the series on MDCK is on record as 3%. Moreover, the Ki at hCB2 (setting [4]) is 740 nM.

As to `O=S(=O)(C1CC1)N1CCN(c2ncnc3c2nc(-c2ccccc2Cl)n3-c2ccc(Cl)cc2)CC1` [Compound 84, 8-(2-Chlorophenyl)-9-(4-chlorophenyl)-6-[4-(cyclopropylsulfonyl)piperazin-1-yl]-9H-purine], the inhibitory constant (Ki) stood at 5.3 nM at hCB1 [1] and 2300 nM at hCB2 (setting [4]). For the same compound, the “% Permeable” value in the series on MDCK is given as 4%.

For the compound `FC(F)(F)Oc1ccccc1CN1CCN(c2ncnc3c2nc(-c2ccccc2Cl)n3-c2ccc(Cl)cc2)CC1` [Compound 112, 8-(2-Chlorophenyl)-9-(4-chlorophenyl)-6-{4-[2-(trifluoromethoxy)benzyl]piperazin-1-yl}-9H-purine], the melting point fell in the range of 110 to 111 °C. Besides, at hCB2, the Ki is 76000 nM.

For the compound `O=C(Nc1ccccc1F)N1CCN(c2ncnc3c2nc(-c2ccccc2Cl)n3-c2ccc(Cl)cc2)CC1` [Compound 56, 4-[8-(2-Chlorophenyl)-9-(4-chlorophenyl)-9H-purin-6-yl]-N-(2-fluorophenyl)piperazine-1-carboxamide], the melting point lay within 214 to 215 °C. Moreover, the Ki on hCB1 [1] (setting [3]) was found to be 6 nM. Moreover, the inhibition constant Ki on hCB2 (setting [4]) came out at 1300 nM.
